Data as given in patent US20200147117A1, “COMBINATION CANCER THERAPY” (BIOSIGHT LTD., priority 2017, published 2020).
Read-outs that look alike come from different tables or passages of the source.

Columns and labels:
[1] = test system: U937 leukemia cells; assay: Animal model of leukemia: NSG mice injected IV with U937 cells; assay type: in vivo, NOD scid gamma (NSG) mice; settings: for Spleen size / weight compared to the control mice: s.c. daily, FIG. 4
Procedure: The effect of BST-236 in combination with azacytidine on the survival of U937 leukemia cells in vivo was next examined NOD scid gamma (NSG) mice were irradiated with 200 rad, 24 hours before injection with U937 cells. On Day 0, mice (4-5 animals per group), were injected intravenously (IV) with 7×10^6 U937 cells in a total volume of 200 μL PBS. On Days 16-22 (7 days, first study) or 13-18 (6 days, second study), mice were daily injected subcutaneously (s.c.) with BST-236 (5 mg/mouse; ˜250 mg/kg), azacytidine (designated AZA; 6 mg/kg), or BST-236 (5 mg/mouse; ˜250 mg/kg) and AZA (6 mg/kg). Twenty-four hours after the last injection, mice were sacrificed, and spleen, blood, and bone marrow were analyzed for mouse and human CD45^+ cells using fluorescence-activated cell sorting (FACS).
Given that finding, experiments will be performed using even lower doses of BST-236 to evaluate synergistic activity with, e.g., AZA. It is, for example, expected that 20 mg/kg BST-236 will be efficacious. Accordingly, in a particular embodiment, NSG mice will be dosed with 20 mg/kg BST-236 alone, 6 mg/kg AZA alone, or a combination of 20 mg/kg BST-236 and 6 mg/kg AZA to investigate synergistic activity with this dosing regimen. It is understood that synergistic activity may also be observed at lower doses of AZA in combination with 20 mg/kg BST-236.

[2] = PK analysis from Phase I/II studies after infusion; assay type: in vivo
Source text: Accordingly, synergistic interactions may be observed within […] administration of BST-236.

[3] = test system: Molt-4 human leukemia cell line; assay: Molt-4 cell proliferation, MTT assay, 72 hr; assay type: cell-based
Procedure: Molt-4 human leukemia cell line was obtained from ATCC. The cells were grown in RPMI medium containing 10% FBS and 1% glutamine Cells were seeded in 96-well plates, 50,000 cells/ml, 0.2 ml per well. Test substances were diluted in PBS and added in final concentrations of 0.1 nM to 10 μM, in a volume of 20 μl. The study was conducted in triplicates. PBS was used as a control. Plates were incubated for 72 hr at 37° C. with 5% CO2. At the end of the treatment period, a MTT assay using the MTT reagent [3-(4,5-dimethylthiazol-2-yl)-2,5-diphenyltetrazolium bromide] was performed. MTT was added to each well at a concentration of 5 mg/ml in a volume of 0.02 ml. Plates were incubated at 37° C. for 3 hours. The plates were centrifuged at 3500 rpm for 5 minutes and the supernatant was aspirated. The pellets which contained MTT crystals were each dissolved in 0.2 ml DMSO. Absorbance was determined using ELISA reader at a wavelength of 570 nm.

[4] = test system: U937 human hematological cancer cells; assay: Proliferation and survival of U937 cells, PI staining / FACS, 72 hours; assay type: cell-based
Procedure: U937 human hematological cancer cells were cultured in RPMI supplemented with 10% FCS. […] Azacitidine (AZA) was added to the cell cultures at 5 different concentrations: 0, 100, 250, 1000, 5000 nM. […] All groups were analyzed in triplicates. […] The percentage of inhibition was calculated.

[5] = test system: U937 cells; assay: Activity of BST-236 on U937 cells, 48 hr, 10% FCS (Table 3); assay type: cell-based, human
[6] = test system: Molt-4 cells; assay: Activity of Asp-Cytarabine/BST-236 on Molt-4 cells, 48 hr, 10% FCS (Table 5); assay type: cell-based, human
[7] = BST-236 5 mg/mouse, AZA 6 mg/kg

Question: What does the source list for NC(CC(=O)Nc1ccn([C@@H]2O[C@H](CO)C(O)C2O)c(=O)n1)C(=O)O (stereo partly shown) [Asp-Cytarabine]?
Answer: Spleen size / weight compared to the control mice [1, 7]: reduced spleen size; Animals that survived until the scheduled sacrifice ([1]; first study, s.c. daily Days 16-22, sacrifice on Day 23, BST-236 5 mg/mouse, AZA 6 mg/kg): 4/4; Concentration decline following infusion cessation ([2]; Phase I/II studies): rapidly declined in an apparent biphasic manner; Concentration relative to the peak ([2]; at 6-10 hours from the completion of the infusion): ≤ 5 % of the peak; IC50 [3]: 47 nM; % inhibition (growth inhibition of U937 cells) ([4]; BST236 250 nM alone): 19.1%; Activity on U937 cells (count) ([5]; 1 nM, 48 hr, 10% FCS): 16958; Activity on U937 cells (count) ([5]; 10 nM, 48 hr, 10% FCS): 16994; Activity on U937 cells (count) ([5]; 50 nM, 48 hr, 10% FCS): 15769.67; Activity on U937 cells (count) ([5]; 100 nM, 48 hr, 10% FCS): 15228.33333; Activity on U937 cells (count) ([5]; 250 nM, 48 hr, 10% FCS): 14819.67; Activity on U937 cells (count) ([5]; 1000 nM, 48 hr, 10% FCS): 6185.667; Activity on U937 cells (count) ([5]; 5000 nM, 48 hr, 10% FCS): 2116; inhibition at 0.001 µM ([5]; Homo sapiens, U-937, 1 nM, 48 hr, 10% FCS, read-out: Activity on U937 cells (inhibition relative to 0)): -2.27%; inhibition at 0.01 µM ([5]; Homo sapiens, U-937, 10 nM, 48 hr, 10% FCS, read-out: Activity on U937 cells (inhibition relative to 0)): -2.49%; inhibition at 0.05 µM ([5]; Homo sapiens, U-937, 50 nM, 48 hr, 10% FCS, read-out: Activity on U937 cells (inhibition relative to 0)): 4.9%; inhibition at 0.1 µM ([5]; Homo sapiens, U-937, 100 nM, 48 hr, 10% FCS, read-out: Activity on U937 cells (inhibition relative to 0)): 8.16%; inhibition at 0.25 µM ([5]; Homo sapiens, U-937, 250 nM Asp-Cytarabine administered alone, read-out: inhibition of U937 cells): < 20%; inhibition at 0.25 µM ([5]; Homo sapiens, U-937, 250 nM, 48 hr, 10% FCS, read-out: Activity on U937 cells (inhibition relative to 0)): 10.6%; inhibition at 1 µM ([5]; Homo sapiens, U-937, 1000 nM, 48 hr, 10% FCS, read-out: Activity on U937 cells (inhibition relative to 0)): 62.7%; inhibition at 5 µM ([5]; Homo sapiens, U-937, 5000 nM, 48 hr, 10% FCS, read-out: Activity on U937 cells (inhibition relative to 0)): 87.2%; Activity on Molt-4 cells (count) ([6]; 1 nM, 48 hr, 10% FCS): 18778.00; Activity on Molt-4 cells (count) ([6]; 10 nM, 48 hr, 10% FCS): 17759.00; Activity on Molt-4 cells (count) ([6]; 50 nM, 48 hr, 10% FCS): 14258.67; Activity on Molt-4 cells (count) ([6]; 100 nM, 48 hr, 10% FCS): 12006.67; Activity on Molt-4 cells (count) ([6]; 250 nM, 48 hr, 10% FCS): 9572.00; Activity on Molt-4 cells (count) ([6]; 1000 nM, 48 hr, 10% FCS): 3156.33; Activity on Molt-4 cells (count) ([6]; 5000 nM, 48 hr, 10% FCS): 2037.33; inhibition at 0.001 µM ([6]; Homo sapiens, MOLT-4, 1 nM, 48 hr, 10% FCS, read-out: Activity on Molt-4 cells (inhibition relative to 0)): 1.88%; inhibition at 0.01 µM ([6]; Homo sapiens, MOLT-4, 10 nM Asp-Cytarabine, read-out: inhibition of Molt-4 cells): < 10%; inhibition at 0.01 µM ([6]; Homo sapiens, MOLT-4, 10 nM, 48 hr, 10% FCS, read-out: Activity on Molt-4 cells (inhibition relative to 0)): 7.21%; inhibition at 0.05 µM ([6]; Homo sapiens, MOLT-4, 50 nM, 48 hr, 10% FCS, read-out: Activity on Molt-4 cells (inhibition relative to 0)): 25.5%; inhibition at 0.1 µM ([6]; Homo sapiens, MOLT-4, 100 nM, 48 hr, 10% FCS, read-out: Activity on Molt-4 cells (inhibition relative to 0)): 37.3%; inhibition at 0.25 µM ([6]; Homo sapiens, MOLT-4, 250 nM, 48 hr, 10% FCS, read-out: Activity on Molt-4 cells (inhibition relative to 0)): 50%; inhibition at 1 µM ([6]; Homo sapiens, MOLT-4, 1000 nM, 48 hr, 10% FCS, read-out: Activity on Molt-4 cells (inhibition relative to 0)): 83.5%; inhibition at 5 µM ([6]; Homo sapiens, MOLT-4, 5000 nM, 48 hr, 10% FCS, read-out: Activity on Molt-4 cells (inhibition relative to 0)): 89.3%

Question: For Nc1ncn([C@@H]2O[C@H](CO)[C@@H](O)[C@H]2O)c(=O)n1 [Azacitidine], which “Spleen size / weight compared to the control mice” value [1, 7] is on record?
Answer: reduced spleen size

Question: What about the “Animals that died before the scheduled sacrifice” value ([1]; first study, AZA 6 mg/kg s.c. daily Days 16-22, sacrifice on Day 23) of the same compound?
Answer: 1/4

Question: And the IC50 [3]?
Answer: 2110 nM

Question: And the “% inhibition (growth inhibition of U937 cells)” value (from here on “% inhibition”) ([4]; AZA 100 nM alone)?
Answer: 1.68%

Question: And the “% inhibition” value ([4]; AZA 250 nM alone)?
Answer: −3.60%

Question: What about the “% inhibition” value ([4]; AZA 1000 nM alone) of the same compound?
Answer: 0.60%

Question: And the “% inhibition” value ([4]; AZA 5000 nM alone)?
Answer: 4.30%
